Experiments:
[1] = Toxicity (morbidity and mortality) of topical vitamin D3 analogs in mice; type: in vivo; settings: for dose at which morbidity and mortality of mice was not observed: topical; for toxicity at 2 nmol/ear: topical 2 nmol/ear
Experimental: (§1) VDR stimulation of keratinocytes led to TSLP production, which in certain embodiments caused increase in Treg numbers. The effects of two vitamin D3 analogs (22-Oxacalcitriol, also known as 22-OXA, and EB1089) on TSLP production and Treg numbers were evaluated. Similarly to MC903, 22-OXA and EB1089 were applied to the ear skin bilaterally at a dose of 2 nmol/ear dissolved in ethanol. After 5 days of treatment, the mice were bled and serum TSLP levels were measured. […] To avoid the toxic effect, the dose of 22-OXA and EB1089 was lowered to a point where morbidity and mortality of mice was not observed (0.4 nmol/ear for 22-OXA; 0.04 nmol/ear for EB1089). At this dose, no increase in TSLP level was detected in 22-OXA-treated mice (FIG. 9B).

TSLP = test: Systemic TSLP induction by topical vitamin D3 analogs (ELISA); type: in vivo, mice; settings: for serum TSLP levels: topical, ear skin bilaterally, 2 nmol/ear in ethanol, after 5 days of treatment
Tregs = test: Treg % in blood and spleen after topical vitamin D3 analogs; type: in vivo, mice; settings: topical 0.04 nmol/ear
Source text: FIGS. 10A-10B comprise bar graphs illustrating data derived from topically treating mice with EtOH or EB1089 (0.04 nmol/ear) for 5 days and bleeding them on Day 7. Treg % from (FIG. 10A) blood and (FIG. 10B) spleen are illustrated. N=3 mice/group. *p<0.01 by Student t-test.
as §1

Row | Compound | dose at which morbidity and mortality of mice was not observed [1] | toxicity at 2 nmol/ear [1] | TSLP level at 0.4 nmol/ear (TSLP; topical 0.4 nmol/ear) | serum TSLP levels (TSLP) | blood Tregs (Tregs) | splenic Treg numbers (Tregs) | TSLP level at 0.04 nmol/ear (TSLP; topical 0.04 nmol/ear)
1 | C=C1/C(=C\C=C2/CCC[C@]3(C)[C@@H]([C@H](C)OCCC(C)(C)O)CC[C@@H]23)C[C@@H](O)C[C@@H]1O [22-OXA, 22-oxa-1α,25(OH)2D3] | 0.4 nmol/ear | toxicity-related morbidity and mortality | no increase | induced detectable amounts of TSLP | – | – | –
2 | C=C1/C(=C\C=C2/CCC[C@]3(C)[C@@H]([C@H](C)/C=C/C=C/C(O)(CC)CC)CC[C@@H]23)C[C@@H](O)C[C@@H]1O [EB1089, 1(S),3(R)-dihydroxy-20(R)-(5′-ethyl-5′-hydroxy-hepta-1′(E),3′(E)-dien-1′-yl)-9,10-secopregna-5(Z),7(E),10(19)-triene] | 0.04 nmol/ear | toxicity-related morbidity and mortality | – | induced detectable amounts of TSLP | only a subtle increase | did not have any effect | some TSLP was detectable
